Key:
Rattus norvegicus = assay: Inhibitory activity against Bezold-jarisch functional assay, inducing a transient bradycardia upon intravenous administration of 5-hydroxytryptamine-(10 ug/kg) in anesthetized rats.; conditions: read-out: ID50 (the source's name)
[1] = Compound was evaluated for protection against cisplatin-induced emesis by measuring number of emetic episodes in ferrets administered perorally at 0.1 mg/kg.; type: functional, Mustela putorius furo; conditions: route oral
Canis familiaris [2] = assay: Compound was evaluated for protection against cisplatin-induced emesis by measuring number of emetic episodes in dogs administered intravenously at 0.03 mg/kg.; type: functional, Canis lupus familiaris; conditions: route intravenous
[3] = Compound was evaluated for protection against cisplatin-induced emesis by measuring number of emetic episodes in ferrets administered perorally at 0.3 mg/kg.; type: functional, Mustela putorius furo; conditions: route oral
[4] = Compound was evaluated for protection against cisplatin-induced emesis by measuring number of retches in ferrets administered perorally at 1.0 mg/kg.; type: functional, Mustela putorius furo; conditions: route oral
[5] = Compound was evaluated for number of emetic episodes in ferrets administered intravenously at 0.01 mg/kg.; type: functional, Mustela putorius furo; conditions: route intravenous
Canis familiaris [6] = assay: Compound was evaluated for protection against cisplatin-induced emesis by measuring number of emetic episodes in dogs administered perorally at 1.0 mg/kg.; type: functional, Canis lupus familiaris; conditions: route oral
Canis familiaris [7] = assay: Compound was evaluated for protection against cisplatin-induced emesis by measuring number of emetic episodes in dogs administered perorally at 0.1 mg/kg.; type: functional, Canis lupus familiaris; conditions: route oral
[8] = Compound was evaluated for protection against cisplatin-induced emesis by measuring number of emetic episodes in ferrets administered intravenously at 0.3 mg/kg.; type: functional, Mustela putorius furo; conditions: route intravenous
Canis familiaris [9] = assay: Compound was evaluated for protection against cisplatin-induced emesis by measuring number of retches in dogs administered intravenously at 0.1 mg/kg.; type: functional, Canis lupus familiaris; conditions: route intravenous
[10] = Compound was evaluated for protection against cisplatin-induced emesis by measuring number of retches in ferrets administered perorally at 0.3 mg/kg.; type: functional, Mustela putorius furo; conditions: route oral
[11] = Compound was evaluated for protection against cisplatin-induced emesis by measuring number of retches in ferrets administered intravenously at 0.1 mg/kg.; type: functional, Mustela putorius furo; conditions: route intravenous
Canis familiaris [12] = assay: Compound was evaluated for protection against cisplatin-induced emesis by measuring number of emetic episodes in dogs administered intravenously at 0.3 mg/kg.; type: functional, Canis lupus familiaris; conditions: route intravenous
Canis familiaris [13] = assay: Compound was evaluated for protection against cisplatin-induced emesis by measuring number of emetic episodes in dogs administered perorally at 0.3 mg/kg.; type: functional, Canis lupus familiaris; conditions: route oral
[14] = Compound was evaluated for protection against cisplatin-induced emesis by measuring number of retches in ferrets administered intravenously at 0.01 mg/kg.; type: functional, Mustela putorius furo; conditions: route intravenous
[15] = Compound was evaluated for protection against cisplatin-induced emesis by measuring number of emetic episodes in ferrets administered perorally at 1.0 mg/kg.; type: functional, Mustela putorius furo; conditions: route oral
[16] = Compound was evaluated for protection against cisplatin-induced emesis by measuring number of retches in ferrets administered intravenously at 0.3 mg/kg.; type: functional, Mustela putorius furo; conditions: route intravenous
Canis familiaris [17] = assay: Compound was evaluated for protection against cisplatin-induced emesis by measuring number of retches in dogs administered intravenously at 0.3 mg/kg.; type: functional, Canis lupus familiaris; conditions: route intravenous
Canis familiaris [18] = assay: Compound was evaluated for protection against cisplatin-induced emesis by measuring number of retches in dogs administered intravenously at 0.03 mg/kg.; type: functional, Canis lupus familiaris; conditions: route intravenous
Canis familiaris [19] = assay: Compound was evaluated for protection against cisplatin-induced emesis by measuring number of retches in dogs administered perorally at 0.1 mg/kg.; type: functional, Canis lupus familiaris; conditions: route oral
[20] = Compound was evaluated for protection against cisplatin-induced emesis by measuring number of emetic episodes in ferrets administered intravenously at 0.03 mg/kg.; type: functional, Mustela putorius furo; conditions: route intravenous
[21] = Compound was evaluated for protection against cisplatin-induced emesis by measuring number of emetic episodes in ferrets administered intravenously at 0.1 mg/kg.; type: functional, Mustela putorius furo; conditions: route intravenous
[22] = Compound was evaluated for protection against cisplatin-induced emesis by measuring number of retches in ferrets administered perorally at 0.1 mg/kg.; type: functional, Mustela putorius furo; conditions: route oral
Canis familiaris [23] = assay: Compound was evaluated for number of retches in dogs administered perorally at 0.3 mg/kg.; type: functional, Canis lupus familiaris; conditions: route oral
[24] = Compound was evaluated for protection against cisplatin-induced emesis by measuring number of retches in ferrets administered intravenously at 0.03 mg/kg.; type: functional, Mustela putorius furo; conditions: route intravenous
Canis familiaris [25] = assay: Compound was evaluated for protection against cisplatin-induced emesis by measuring number of retches in dogs administered perorally at 1.0 mg/kg.; type: functional, Canis lupus familiaris; conditions: route oral
Canis familiaris [26] = assay: Compound was evaluated for protection against cisplatin-induced emesis by measuring number of emetic episodes in dogs administered intravenously at 0.1 mg/kg.; type: functional, Canis lupus familiaris; conditions: route intravenous

In the case of `Cc1[nH]cnc1Cn1cccc(-c2ccccc2)c1=O`, the ED50 (Rattus norvegicus) is reported as 12 µg/kg.

Work on `COc1cccc(-c2cccn(Cc3[nH]cnc3C)c2=O)c1` yielded an ED50 (Rattus norvegicus) of 26.7 µg/kg.

`Cc1nc[nH]c1Cn1ccc2c(C)cc3ccccc3c2c1=O` showed an ED50 (Rattus norvegicus) of 1.09 µg/kg.

Compound `Cc1cc2c(=O)n(Cc3[nH]cnc3C)ccc2cc1N` has an ED50 (Rattus norvegicus) of 4.1 µg/kg.

Compound `Cc1[nH]cnc1Cn1ccc2ccccc2c1=O` has an ED50 (Rattus norvegicus) of 38.7 µg/kg.

Work on `COc1ccc2c(ccc3ccn(Cc4[nH]cnc4C)c(=O)c32)c1` yielded an ED50 (Rattus norvegicus) of 56.6 µg/kg.

With `Cc1nc[nH]c1Cn1ccc2cc(C)c3ccccc3c2c1=O` the ED50 (Rattus norvegicus) was 0.82 µg/kg.

Work on `Cc1[nH]cnc1Cn1ccc2c3ccccc3c3ccccc3c2c1=O` yielded an ED50 (Rattus norvegicus) of 6.95 µg/kg.

In the case of `Cc1[nH]cnc1Cn1ccc2c(CO)cc3ccccc3c2c1=O`, the ED50 (Rattus norvegicus) is reported as 0.68 µg/kg.

In the case of `Cc1[nH]cnc1Cn1ncc2ccccc2c1=O`, the ED50 (Rattus norvegicus) is reported as over 100 µg/kg.

Compound `Cc1ccc(-c2cccn(Cc3[nH]cnc3C)c2=O)s1` has an ED50 (Rattus norvegicus) of 3.62 µg/kg.

With `Cc1[nH]cnc1Cn1ccc2c(c1=O)-c1ccsc1CC2` the ED50 (Rattus norvegicus) was 2.78 µg/kg.

With `COc1cc2ccccc2c2c(=O)n(Cc3[nH]cnc3C)ccc12` the ED50 (Rattus norvegicus) was 2.53 µg/kg.

For `Cc1[nH]cnc1Cn1cccc(-c2ccccn2)c1=O`, the ED50 (Rattus norvegicus) was 10.4 µg/kg.

With `Cc1[nH]cnc1Cn1cccc(-c2ccccc2O)c1=O` the ED50 (Rattus norvegicus) was 40 µg/kg.

For `Cc1[nH]cnc1Cn1ccc2cccc(N)c2c1=O`, the ED50 (Rattus norvegicus) was 53.1 µg/kg.

With `Cc1[nH]cnc1Cn1ccc2ccc3ccccc3c2c1=O` the “No. of emetic episodes” value [1] was 4.8, the “No. of emetic episodes” value (Canis familiaris [2]) was 10.2 and the “No. of emetic episodes” value [3] was 1.3. The No. of retches [4] was 1, the “No. of emetic episodes” value [5] was 10.8 and the “No. of emetic episodes” value (Canis familiaris [6]) was 1.8. The “No. of emetic episodes” value (Canis familiaris [7]) was 10.8, the “No. of emetic episodes” value [8] was 0 and the No. of retches (Canis familiaris [9]) was 53.8. For the same compound, the No. of retches [10] was 31.5, the No. of retches [11] was 65 and the “No. of emetic episodes” value (Canis familiaris [12]) was 3.4. For the same compound, the “No. of emetic episodes” value (Canis familiaris [13]) was 4, the No. of retches [14] was 144.5 and the “No. of emetic episodes” value [15] was 0. For the same compound, the ED50 (Rattus norvegicus) was 0.3 µg/kg, the No. of retches [16] was 11.8 and the No. of retches (Canis familiaris [17]) was 42.4. The No. of retches (Canis familiaris [18]) was 143.8, the No. of retches (Canis familiaris [19]) was 133.2 and the “No. of emetic episodes” value [20] was 5. For the same compound, the “No. of emetic episodes” value [21] was 2, the No. of retches [22] was 89.3 and the No. of retches (Canis familiaris [23]) was 27.8. The No. of retches [24] was 79, the No. of retches (Canis familiaris [25]) was 26.3 and the “No. of emetic episodes” value (Canis familiaris [26]) was 4.4.

`COc1cc(N)c(Cl)cc1C(=O)NCc1[nH]cnc1C` showed an ED50 (Rattus norvegicus) of 3.53 µg/kg.

`Cc1[nH]cnc1Cn1ccc2c(Cl)cc(Cl)cc2c1=O` showed an ED50 (Rattus norvegicus) of 34.6 µg/kg.

With `Cc1ccc(-c2cccn(Cc3[nH]cnc3C)c2=O)o1` the ED50 (Rattus norvegicus) was 9.18 µg/kg.

`Cc1[nH]cnc1Cn1ccc2cc3c(cc2c1=O)OCCO3` gave an ED50 (Rattus norvegicus) of over 100 µg/kg.

`Cc1[nH]cnc1Cn1ccc2cc(N)ccc2c1=O` gave an ED50 (Rattus norvegicus) of 37.9 µg/kg.

In the case of `Cc1[nH]cnc1Cn1cccc(-c2cccc([N+](=O)[O-])c2)c1=O`, the ED50 (Rattus norvegicus) is reported as over 100 µg/kg.

With `Cc1nc[nH]c1Cn1ccc2c(=O)n(C)c3ccccc3c2c1=O` the ED50 (Rattus norvegicus) was 0.23 µg/kg.

Compound `Cc1[nH]cnc1Cn1ccc2nc3ccccc3cc2c1=O` has an ED50 (Rattus norvegicus) of 19.5 µg/kg.

Work on `Cc1[nH]cnc1Cn1ccc2ccc(Cl)cc2c1=O` yielded an ED50 (Rattus norvegicus) of 25.5 µg/kg.

In the case of `Cc1[nH]cnc1Cn1cccc(-c2ccc(Br)s2)c1=O`, the ED50 (Rattus norvegicus) is reported as 7.49 µg/kg.
